Test results published in PMC3849192, “A Simple Method for Assessing Free Brain/Free Plasma Ratios Using an In Vitro Model of the Blood Brain Barrier” (PLoS ONE, 2013).

How the values were obtained:
[1] = Fraction unbound brain (fu,br), brain homogenate equilibrium dialysis; conditions: brain homogenate (10%), 1 µM, equilibrium dialysis 18 hrs at 37°C
Method: The degree of brain binding was assessed by equilibrium dialysis. Brain homogenate (10%) was spiked with test compound at 1 µM in triplicate. […] The plate was then placed in a shaker/incubator to equilibrate for 18 hrs at 37°C. […] After the addition of 50 µl of buffer to the brain homogenate samples, 150 µl of acetonitrile was added to each sample. Finally, 50 µl of water was added to all buffer and brain homogenate samples. The plates were centrifuged and the supernatant analyzed by LC-MS/MS.

[2] = Brain microdialysis, free brain and plasma concentration-time profiles; type: in vivo; conditions: male, Wistar, sc, rat, 30 µmol/kg s.c., read-out: Cu,br/Cu,pl in microdialysis
Method: Adult male Wistar rats (280–350 g; Harlan, Horst, The Netherlands) were used for the experiments.
Rats were anesthetized using isoflurane 2% and O2. Before the surgery, Fynadine (1 mg/kg s.c.) was administered for analgesia during surgery and recovery. A mixture of Marcaine and adrenaline was used for local anesthesia on the head. Implantation of a microdialysis probe into the brain and a catheter into the right jugular vein was performed in the same surgical procedure. After surgery animals were housed individually (cages 30×30×40 cm), food and water was ad libitum available. Surgery was carried out at least 24 hours before the start of the experiments.
Each animal was placed into a stereotaxic frame (Kopf instruments, USA). A non-metal guide cannula with a MetaQuant probe (MQ 6/4, regenerated cellulose membrane, 4 mm exposed surface, Brainlink, The Netherlands) was implanted with in the prefrontal cortex (PFC), its tip at the following coordinates: AP = 3.4 mm (to bregma), lateral 0.8 mm (to midline), ventral −5.0 mm (to dura) with Toothbar set at −3.3 mm, according to the atlas of Paxinos and Watson (1982). […]
To test whether probe recoveries were sufficiently high to enable quantitative measurements of brain extracellular concentrations in the in vivo microdialysis experiments, each of the compounds was subjected to an in vitro recovery test. […]

Compound: CN1CCN(C2=Nc3cc(Cl)ccc3Nc3ccccc32)CC1 [Clozapine]
- fubrain (homog.) Mean [1]: 0.0094
- Kp at 30 min ([2]; at 30 min): 0.04
- Kp at 240 min ([2]; at 240 min): 1.71
